The values that follow come from a melting point compilation (Tetko et al.; mined from patent text by program, amines drawn as free bases though some values may be those of a salt).

Usually melting point stands for the temperature of the solid-liquid transition. As to `CCCC[C@]1(CC)CS(=O)(=O)c2cc(OC)c(OC)cc2[C@@H](c2ccccc2)N1O`, the melting point lay in the range of 174 to 175 °C.
`CC(CN)C1=CC(C)(C(=O)O)CC=C1` (stereo not drawn): the melting point fell in the range of 236 to 238 °C.
Turning to `CNc1nc(OC)ccc1[N+](=O)[O-]`, the melting point was 152 to 153 °C.
The value for `COC1(OC)C2(Cl)C(Cl)=C(Cl)C1(Cl)C1OC(=O)OC12` (stereo not drawn) was 160 to 162 °C; that for `CCCCCC1(C(=O)Nc2ccc(C(=O)O)cn2)CC2=C(C1)C(C)(C)CCC2(C)C` was 172 to 174 °C; that for `COC(=C(C#N)C(=O)Nc1ccccc1)c1cccn1C` was 121 to 122 °C.
On to `CCOC(=O)C(Cc1cc(C)cc(OC(F)(F)C(F)F)c1)C(=O)c1ccc(F)cc1` (stereo not drawn), for which the melting point fell in the range of 56 to 57 °C.
`CCOC=Nc1c(C#N)cnn1-c1ccc(Cl)c(Cl)c1Cl` returned a melting point of 131 to 132 °C.
`CCCCCCCCCCCCCCCCCCNC(=O)OCC(CN(C(C)=O)S(=O)(=O)CCCCl)NC(C)=O` (stereo not drawn) had a melting point of 116 to 117 °C.
`Cc1oc(-c2ccccc2)nc1Cc1cc2cc(N)ccc2o1` displayed a melting point of 162 °C.
The value for `O=c1c(Br)c(O)ccn1Cc1ccc(O)cc1` was 102 to 108 °C.
As for `O=C(O)CSONC(=O)c1c(Cl)ccc2cc(Cl)cnc12`, the melting point is 174 °C.
The molecule `Cn1cc(C2=C(c3c4n(c5ccccc35)CCC(CO)CC4)C(=O)NC2=O)c2ccccc21` (stereo not drawn) returned a melting point of 109 to 111 °C.
On to `COc1ccc2c(C(=O)c3ccc(OC4CCCCC4N4CCCCCC4)cc3)c(-c3ccc(OCCN4CCCC4)cc3)sc2c1` (stereo not drawn), for which the melting point is 43.5 to 51.5 °C.
Take `O=C(CCSCCSCCSCCC(=O)Nc1ccc(Nc2ccccc2)cc1)Nc1ccc(Nc2ccccc2)cc1`: the melting point fell in the range of 196 to 198 °C.
The same measure for `CC(C)CCCOc1c(-c2ccc(S(C)(=O)=O)cc2)cnn(-c2ccc(F)c(F)c2)c1=O`: 98 to 99 °C; for `O=C(c1ccc(N2CCOCC2)cc1O)C(F)(F)F`: 81 to 82 °C.
In turn, `CCC(CC)c1ccc(Cl)c2nc3n(c12)CCCCN3c1ccc(OC)nc1OC` returned a melting point of 85 to 88 °C.
In the case of `CN1C(=O)N(c2ccc([N+](=O)[O-])c(C(F)(F)F)c2)C(=O)C1(C)C`, the melting point is 116 °C.
`O=C(NOCCO)c1cc(F)c(F)c(F)c1Nc1ccc(I)cc1Cl` yielded a melting point of 183 to 184 °C.
Turning to `O=C(O)[C@H]1C[C@H](NC(=S)Nc2ccccc2)c2c(Cl)cc(Cl)cc2N1` (relative stereo), the melting point is 186 to 187 °C.
For `Cc1nc(-c2ccccc2)nc2sc3c(N4CCNCC4)nc(Cl)nc3c12`, the melting point was > 310 °C.
The same measure for `COC(=O)c1ccc(C(=O)OC)c(SCc2ccccc2)c1`: 90 to 93.5 °C; for `CCCCOc1cc(C(=O)O)cc([N+](=O)[O-])c1C(=O)c1ccc(Cl)cc1`: 180 to 182 °C; for `CCc1nsc(NC(=O)C(C)c2ccc3oc(-c4c(F)cccc4Cl)nc3c2)c1Cl` (stereo not drawn): 178 to 179 °C.
Regarding `O=c1c(Br)c(OCc2ccc(F)c(F)c2)ccn1Cc1cccc(F)c1`, the melting point lay within 172 to 174 °C.
The molecule `CSC1=C(Sc2ccc(C)cc2)CC2C3CCC4=CC(=O)C=CC4(C)C3(F)C(O)CC12C` (stereo not drawn) came in with a melting point of 205 to 206 °C.
As for `Cc1[nH]c(=O)cc2c1CC(c1ccncc1)CC2` (stereo not drawn), the melting point was > 300 °C.
Take `C=CCN(C1CCN(C)CC1)S(=O)(=O)c1ccc(Nc2nccc(Nc3ccc(F)cc3)n2)cc1`: the melting point was found to be 167 °C.
The same measure for `CC(C)(C)NNC(=O)C(C)(C)C`: 97 to 105 °C.
`CC(C)(C)C(O)(COc1ccc(Cl)cc1)c1cncnc1` (stereo not drawn) yielded a melting point of 172 to 174 °C.
The molecule `COc1cc(-c2ccc(Br)cc2)oc1-c1ccc(Br)cc1` returned a melting point of 112 to 113 °C.
Regarding `CC(C)(CO)c1ccc(C(=O)Nc2cn3cc(Cl)ccc3n2)cc1`, the melting point was 240 to 242 °C.
In turn, `CC(=O)Nc1cc2c(cc1[N+](=O)[O-])OC(C)(C)[C@@H](O)[C@@H]2NC(=O)CCCCl` (relative stereo) came in with a melting point of 178 to 180 °C.
Molecule `O=c1cc(Nc2cc([N+](=O)[O-])ccc2Cl)[nH]n1-c1c(Cl)cc(Cl)cc1Cl` registered a melting point of 274 to 278 °C.
Consider `CN1C[C@H](CN2CCN(C(c3ccccc3)c3ccccc3)CC2)C=C2c3cccc4[nH]cc(c34)C[C@H]21`, for which the melting point is > 200 °C.
As to `Cc1cc(Cl)c(C(=O)c2ccc(Cl)cc2)c(Cl)c1`, the melting point is 112 to 114 °C.
The molecule `COc1c(N2CC[C@@H](C(C)(C)NC(=O)OC(C)(C)C)C2)c(F)cc2c(=O)c(C(=O)O)cn(C3CC3)c12` returned a melting point of 70 to 72 °C.
In turn, `CCCCCSc1ccc(CN(O)C(N)=S)s1` yielded a melting point of 112 to 114 °C.
Take `CCCCCCCCOc1ccc2c(c1)C(=O)c1cc3ccccc3cc1C2=O`: the melting point was in the range of 127 to 129 °C.
As to `CC#CCOc1ccc(S(=O)(=O)NC2(C(=O)O)CCCCC2)cc1`, the melting point is 112 to 114 °C.
`COC(=O)CCC(=O)c1ccc2c(c1)CC(CCNC(C)=O)C2` (stereo not drawn) yielded a melting point of 96 to 97 °C.
`C#CCn1cncc1CO` gave a melting point of 91 to 92.5 °C.
For `Clc1ccc(-c2cccnc2)cn1`, the melting point was 113 to 115 °C.
The value for `O=C(O)C(=O)c1ccc(OCCOc2ccc3ccccc3c2)cc1Cl` was 152 to 153 °C; that for `CC(Cc1c[nH]c2ccccc12)(NC(=O)OC1C2CC3CC(C2)CC1C3)C(=O)NCCc1cccc(NC(=O)CCC(=O)O)c1` (stereo not drawn) was 78 to 82 °C.
Consider `CCCCCCCCNC(=O)CCBr`, for which the melting point was 48 to 55 °C.
`CCn1c(=O)ccc2cnc(Nc3ccc(OC)c(F)c3)nc21` returned a melting point of 196 to 198 °C.
For the molecule `CCOC(=O)c1c(-c2ccccc2)c2cc(Cl)ccc2[nH]c1=O`, the melting point was in the range of 223 to 224 °C.
As to `CCOC(=O)C(=CNc1ncnc2ccc(CC)cc12)C(=O)OCC`, the melting point lay within 104 to 106 °C.
Take `N#Cc1ccc2oc(CCCc3cc4cc(C#N)ccc4o3)cc2c1`: the melting point was in the range of 153 to 154 °C.
Molecule `Cc1c(CC(=O)NCCO[N+](=O)[O-])cc(-c2ccc(S(C)(=O)=O)cc2)n1-c1ccccc1` showed a melting point of 89 °C.
As for `CCCNC(=O)Cc1c(-c2ccc(C)s2)nc2sc3ccccc3n12`, the melting point fell in the range of 204 to 206 °C.
The molecule `COc1cc(-c2nnn[nH]2)ccc1Cc1cn(C)c2ccc(NC(=O)CC3CCCC3)cc12` returned a melting point of 242 to 243 °C.
`Cc1ccccc1C1CCN(C(=O)CCC(=O)c2ccc3c(c2)CCNCC3)CC1` displayed a melting point of 93 to 95 °C.
On to `CSc1c[nH]c2cccc([N+](=O)[O-])c12`, for which the melting point was in the range of 123 to 124 °C.
The molecule `CS(=O)(=O)C1(F)Cc2cc(Cl)ccc2C1=O` (stereo not drawn) gave a melting point of 150 °C.
Turning to `N#Cc1ccc(-c2ccc(-c3cn4cc(C#N)ccc4n3)o2)cc1`, the melting point was 298 to 300 °C.
On to `Cc1nc(-n2cnn(Cc3c(C)noc3C)c2=O)sc1C(=O)NCc1cccnc1`, for which the melting point fell in the range of 233 to 234 °C.
As for `CNc1c(-c2cc(Cl)ccc2O)c2cc(C(F)(F)F)ccc2[nH]c1=O`, the melting point is 238 to 240 °C.
`CCCCN1CCCC1=NC(=O)Nc1c(C)cccc1C` displayed a melting point of 93 to 95 °C.
Take `O=C(O)c1ccc(CN2C(=O)c3ccc(C(=O)O)cc3C2=O)cc1`: the melting point is 365 to 366 °C.
`CC(=O)C(Cc1cc(O)c(O)c([N+](=O)[O-])c1)C(=O)C1CC1` (stereo not drawn) gave a melting point of 98 to 104 °C.
The molecule `CCCCCCCCCCCCCCCC(=O)Nc1ccc(C(=O)O)cc1C` showed a melting point of 194 to 196 °C.
Take `Cn1c2c(c3ccccc31)OCC2=O`: the melting point was 113 to 116 °C.
The value for `COc1ccc(OC)c(CC(=O)c2ccc(C(C)C)c(OS(N)(=O)=O)c2C(C)C)c1` was 150 to 152 °C.
In turn, `O=C1CCC2CCC(=O)N12` yielded a melting point of 179 to 182 °C.
The value for `CC(C)(C)C(=O)Oc1ccc(C(O)c2ccc(OC(=O)C(C)(C)C)cc2)cc1` was 148 to 152 °C.
Consider `Cc1c(NC(=O)c2ccc(-c3ccc(F)cc3)cc2)ccc2cc(CN3CCC(CCCC(=O)N4CCCCC4)CC3)cnc12`, for which the melting point lay within 154 to 156 °C.
Molecule `O=C1c2ccccc2C(=O)N1c1cc(CCl)ccn1` came in with a melting point of 152 to 153 °C.
The molecule `CC(C)(C)OC(=O)Nc1cc(Cl)c(I)cc1[N+](=O)[O-]` came in with a melting point of 82 to 84 °C.
`Cc1nnc2n1-c1ccccc1C(c1ccccc1Cl)OC2C` (stereo not drawn) showed a melting point of 176 to 178 °C.
For `CCCCC(C)(C)C(NC(=O)c1ccc(Cl)cc1)NC(=NC#N)Nc1cccnc1` (stereo not drawn), the melting point was in the range of 168 to 170 °C.
In turn, `Nc1cc(N2C(=O)C3=C(CCCC3)C2=O)c(F)cc1Cl` showed a melting point of 164 to 165 °C.
The value for `COc1ccc(Cn2cnc3c(-c4ccco4)nc(OC(C)C)nc32)cc1` was 145 to 146 °C; that for `Nc1nc(-c2ccc3c(c2)OCCO3)c(-c2ccccn2)s1` was 214 °C; that for `Oc1cc2c(cc1C13CC4CC(CC(C4)C1)C3)CCCC2` was 169 to 170 °C.
For `CCOC(=O)CCN1CCC(OC(c2ccccc2)c2ccc(C)cc2)CC1` (stereo not drawn), the melting point is 101 to 104 °C.
Turning to `CNC(=NS(C)(=O)=O)NCCSCc1csc(CN(C)C)n1`, the melting point fell in the range of 95 to 97 °C.
The same measure for `c1cnc2ccc(Cn3nnc4ccc(-c5ccc6c(c5)OCO6)nc43)cc2c1`: 179 to 181 °C; for `OCCNc1nc(NCCO)nc(Nc2ccccc2Cl)n1`: 108 to 110 °C.
The value for `COc1cc(C=CC(=O)Nc2cnc3ccc(C)cc3c2-c2ccccc2Cl)cc(OC)c1O` was 235 to 236 °C.
As for `CC(C)(C)c1cc(CCc2ccccc2NC(=O)N2CCC(N3CCCCC3)CC2)cc(C(C)(C)C)c1O`, the melting point lay in the range of 64 to 67 °C.
Take `Cc1c(C2=CCC(c3ccccc3)(N(C)C)CC2)n(CC2CO2)c2ccccc12` (stereo not drawn): the melting point was 147 to 150 °C.
`O=C(CS(=O)(=O)C(c1ccc(Cl)cc1)c1ccc(Cl)cc1)C(F)(F)F` displayed a melting point of 60 to 62 °C.
On to `Cc1ccccc1-c1nc(-c2ccccc2Cl)n[nH]1`, for which the melting point was in the range of 109 to 111 °C.
For the molecule `O=C1c2cc(O)ccc2NCC1Cc1ccccc1` (stereo not drawn), the melting point was in the range of 143 to 149 °C.
The same measure for `CNC(=O)Oc1ccc(NS(=O)(=O)c2ccc(C)cc2)c(C)c1`: 181 to 184 °C.
